Test results taken from patent US20220338473A1, “USE OF BENZYL ALCOHOL AS A HERBICIDE” (INNOVI, priority 2019, published 2022).

Experiments:
Type in all cases: in vivo
[1] = test system: Mustard; assay: Early post-emergence herbicide activity, visual rating of symptoms; conditions: cotyledon stage, average of 5 pots
Source text: The soil is composed of 50% agricultural soil and 50% vermiculite.
Mustard seeds are sown in a Petri dish up to the stage of emergence of the radicle. The pre-germinated seeds are placed 1 cm deep in 8 cm×8 cm pots at a rate of 5 seeds per pot and 5 pots/repetitions per condition (treated plants and control plants).
On appearance of the cotyledons, the treatment is applied using a spraying bench simulating an outdoor treatment.
The spraying volume of 200 L/ha.
An untreated control (water alone) is added.
The cultivation conditions are 15° C. during the night/20° C. during the day with a photoperiod of 14 hours (light intensity of approximately 300 μmol/s/m^2).
A visual rating of the symptoms at 1, 3 and 7 days after treatment is carried out for the treated plants.
Each value is an average value calculated over 5 pots per condition.

[2] = test system: Brambles; assay: Non-selective activity on brambles (spraying, potted); conditions: 12 g pure benzyl alcohol (600 L/Ha) in 16 g product (800 L/Ha)
Description: (§1) The assays were carried out on potted plants.
The application of the product is carried out with a trigger spray bottle which makes it possible to spray 1 g of product per spraying, as microdroplets. The treated plants are sprinkled with different quantities of water comprising different quantities of pure benzyl alcohol (PanReac AppliChem—ITW Reagents). The untreated (control) plants are sprinkled with the same total quantity of water only.
The brambles are sprinkled with: • 16 g of product (equivalent to 800 L/Ha) including 12 g pure benzyl alcohol for the treated plant (equivalent to 600 L/Ha pure benzyl alcohol), and • 16 g water for the control plants.
The collapsing of the plant, the colour intensity and the diameter of the plant were measured as indicated in Example 1.

[3] = test system: Barley seeds; assay: Pre-emergence herbicide activity: germination of seeds sown at different depths
Description: as §1
Pure benzyl alcohol was used (PanReac AppliChem—ITW Reagents). The application of the product is carried out with a trigger spray bottle which makes it possible to spray 1 g of product per spraying as microdroplets.
Barley seeds (50 seeds per condition) are sown in potting soil at different depths (1, 2 and 3 cm). Then, 100% benzyl alcohol is sprayed on the earth (above the seeds) at different concentrations (10, 25, 50, 100, 200, 300 L/Ha).
The state of germination is observed at 0 and 11 days. The percentage of germination is the percentage of germinated seeds evaluated after 11 days.
The percentage of seeds germinated under each of the conditions is determined and if it is below 70%, pre-emergence use is not recommended.

[4] = test system: Grass; assay: Preventative herbicide activity by sprinkling of the soil; design: key to Plants sprouted despite the preventative treatment: yes: the areas where the plants have sprouted despite the preventative treatment; no: the areas where the preventative treatment made it possible to prevent the sprouting of the identified plants; conditions: for Plants sprouted despite the preventative treatment: soil sprinkling
Description: (§2) Areas identified as each year showing the presence of couch grass, grass, bindweeds and thistles were treated preventatively. […] The results are reported in Table 6 below, in which the note “yes” indicates the areas where the plants have sprouted despite the preventative treatment, and the note “no” indicates the areas where the preventative treatment made it possible to prevent the sprouting of the identified plants.

[5] = test system: Thistle; assay: as above; design: key to Plants sprouted despite the preventative treatment: yes: the areas where the plants have sprouted despite the preventative treatment; no: the areas where the preventative treatment made it possible to prevent the sprouting of the identified plants; conditions: for Plants sprouted despite the preventative treatment: soil sprinkling
Description: as §2

[6] = test system: Bindweed; assay: as above; design: key to Plants sprouted despite the preventative treatment: yes: the areas where the plants have sprouted despite the preventative treatment; no: the areas where the preventative treatment made it possible to prevent the sprouting of the identified plants; conditions: for Plants sprouted despite the preventative treatment: soil sprinkling
Description: as §2

[7] = test system: Couch grass; assay: as above; design: key to Plants sprouted despite the preventative treatment: yes: the areas where the plants have sprouted despite the preventative treatment; no: the areas where the preventative treatment made it possible to prevent the sprouting of the identified plants; conditions: for Plants sprouted despite the preventative treatment: soil sprinkling
Description: as §2

Question: `OCc1ccccc1` [benzyl alcohol] was tested. Which “Visual rating of the symptoms (0 = similar to control, 100 = dead plant)” value (shortened to “Visual rating of the symptoms”) ([1]; 30 L/ha active material, 1 day after treatment) did it give?
Answer: 3

Question: And the “Visual rating of the symptoms” value ([1]; 30 L/ha active material, 3 days after treatment)?
Answer: 21

Question: And the “Visual rating of the symptoms” value ([1]; 30 L/ha active material, 7 days after treatment)?
Answer: 81

Question: What about the “Visual rating of the symptoms” value ([1]; 40 L/ha active material, 1 day after treatment) of the same compound?
Answer: 59

Question: And the “Visual rating of the symptoms” value ([1]; 40 L/ha active material, 3 days after treatment)?
Answer: 82

Question: And the “Visual rating of the symptoms” value ([1]; 40 L/ha active material, 7 days after treatment)?
Answer: 93

Question: What about the “Visual rating of the symptoms” value ([1]; 60 L/ha active material, 1 day after treatment) of the same compound?
Answer: 63

Question: And the “Visual rating of the symptoms” value ([1]; 60 L/ha active material, 3 days after treatment)?
Answer: 92

Question: What about the “Visual rating of the symptoms” value ([1]; 60 L/ha active material, 7 days after treatment) of the same compound?
Answer: 100

Question: And the “Collapsing: time to pass from a score of 5 to a score of 1” value [2]?
Answer: 144 h

Question: What about the “Colour intensity: time to pass from a score of 5 to a score of 1” value [2] of the same compound?
Answer: 96 h

Question: And the “Pre-emergence use prescribed (germination of sown seeds at 11 days not below 70%)” value ([3]; seeding depth 1 cm, 50 L/Ha benzyl alcohol sprayed on the earth)?
Answer: yes (pre-emergence use is prescribed)

Question: And the “Pre-emergence use prescribed (germination of sown seeds at 11 days not below 70%)” value ([3]; seeding depth 1 cm, 100 L/Ha benzyl alcohol sprayed on the earth)?
Answer: no (pre-emergence use is not recommended)

Question: What about the “Pre-emergence use prescribed (germination of sown seeds at 11 days not below 70%)” value ([3]; seeding depth 1 cm, less than 50 L/Ha benzyl alcohol sprayed on the earth) of the same compound?
Answer: yes (pre-emergence use is prescribed)

Question: What about the “Pre-emergence use prescribed (germination of sown seeds at 11 days not below 70%)” value ([3]; seeding depth 2 cm, 50 L/Ha benzyl alcohol sprayed on the earth) of the same compound?
Answer: yes (pre-emergence use is prescribed)

Question: And the “Pre-emergence use prescribed (germination of sown seeds at 11 days not below 70%)” value ([3]; seeding depth 2 cm, 100 L/Ha benzyl alcohol sprayed on the earth)?
Answer: yes (pre-emergence use is prescribed)

Question: And the “Pre-emergence use prescribed (germination of sown seeds at 11 days not below 70%)” value ([3]; seeding depth 2 cm, less than 50 L/Ha benzyl alcohol sprayed on the earth)?
Answer: yes (pre-emergence use is prescribed)

Question: What about the “Pre-emergence use prescribed (germination of sown seeds at 11 days not below 70%)” value ([3]; seeding depth 3 cm, 50 L/Ha benzyl alcohol sprayed on the earth) of the same compound?
Answer: yes (pre-emergence use is prescribed)

Question: What about the “Pre-emergence use prescribed (germination of sown seeds at 11 days not below 70%)” value ([3]; seeding depth 3 cm, 100 L/Ha benzyl alcohol sprayed on the earth) of the same compound?
Answer: yes (pre-emergence use is prescribed)

Question: And the “Pre-emergence use prescribed (germination of sown seeds at 11 days not below 70%)” value ([3]; seeding depth 3 cm, less than 50 L/Ha benzyl alcohol sprayed on the earth)?
Answer: yes (pre-emergence use is prescribed)

Question: And the “Quantity of benzyl alcohol (sprinkling) that prevents sprouting” value (“Quantity of benzyl alcohol” for short) ([4]; preventative soil sprinkling)?
Answer: 120 L/Ha

Question: What about the “Plants sprouted despite the preventative treatment” value ([4]; 50 L/ha pure benzyl alcohol) of the same compound?
Answer: yes

Question: And the “Plants sprouted despite the preventative treatment” value ([4]; 70 L/Ha pure benzyl alcohol)?
Answer: yes

Question: What about the “Plants sprouted despite the preventative treatment” value ([4]; 110 L/Ha pure benzyl alcohol) of the same compound?
Answer: yes

Question: And the “Plants sprouted despite the preventative treatment” value ([4]; 120 L/Ha pure benzyl alcohol)?
Answer: no

Question: And the “Plants sprouted despite the preventative treatment” value ([4]; 130 L/Ha pure benzyl alcohol)?
Answer: no

Question: And the “Plants sprouted despite the preventative treatment” value ([4]; 150 L/Ha pure benzyl alcohol)?
Answer: no

Question: And the “Quantity of benzyl alcohol” value ([5]; preventative soil sprinkling)?
Answer: 110 L/Ha

Question: And the “Plants sprouted despite the preventative treatment” value ([5]; 50 L/ha pure benzyl alcohol)?
Answer: yes

Question: What about the “Plants sprouted despite the preventative treatment” value ([5]; 70 L/Ha pure benzyl alcohol) of the same compound?
Answer: yes

Question: What about the “Plants sprouted despite the preventative treatment” value ([5]; 110 L/Ha pure benzyl alcohol) of the same compound?
Answer: no

Question: And the “Plants sprouted despite the preventative treatment” value ([5]; 120 L/Ha pure benzyl alcohol)?
Answer: no

Question: What about the “Plants sprouted despite the preventative treatment” value ([5]; 130 L/Ha pure benzyl alcohol) of the same compound?
Answer: no

Question: And the “Plants sprouted despite the preventative treatment” value ([5]; 150 L/Ha pure benzyl alcohol)?
Answer: no

Question: And the “Quantity of benzyl alcohol” value ([6]; preventative soil sprinkling)?
Answer: 110 L/Ha

Question: And the “Plants sprouted despite the preventative treatment” value ([6]; 50 L/ha pure benzyl alcohol)?
Answer: yes

Question: What about the “Plants sprouted despite the preventative treatment” value ([6]; 70 L/Ha pure benzyl alcohol) of the same compound?
Answer: yes

Question: What about the “Plants sprouted despite the preventative treatment” value ([6]; 110 L/Ha pure benzyl alcohol) of the same compound?
Answer: no

Question: And the “Plants sprouted despite the preventative treatment” value ([6]; 120 L/Ha pure benzyl alcohol)?
Answer: no

Question: What about the “Plants sprouted despite the preventative treatment” value ([6]; 130 L/Ha pure benzyl alcohol) of the same compound?
Answer: no

Question: What about the “Plants sprouted despite the preventative treatment” value ([6]; 150 L/Ha pure benzyl alcohol) of the same compound?
Answer: no

Question: And the “Quantity of benzyl alcohol” value ([7]; preventative soil sprinkling)?
Answer: 130 L/Ha

Question: What about the “Plants sprouted despite the preventative treatment” value ([7]; 50 L/ha pure benzyl alcohol) of the same compound?
Answer: yes

Question: What about the “Plants sprouted despite the preventative treatment” value ([7]; 70 L/Ha pure benzyl alcohol) of the same compound?
Answer: yes

Question: And the “Plants sprouted despite the preventative treatment” value ([7]; 110 L/Ha pure benzyl alcohol)?
Answer: yes

Question: What about the “Plants sprouted despite the preventative treatment” value ([7]; 120 L/Ha pure benzyl alcohol) of the same compound?
Answer: yes

Question: What about the “Plants sprouted despite the preventative treatment” value ([7]; 130 L/Ha pure benzyl alcohol) of the same compound?
Answer: no

Question: And the “Plants sprouted despite the preventative treatment” value ([7]; 150 L/Ha pure benzyl alcohol)?
Answer: no
